Results published in patent US10751802B1, “Method of producing silver nanoparticles using red sand” (KING SAUD UNIVERSITY, priority 2019, dated 2020).

Columns and labels:
[1] = tested on: Salmonella typhimurium (ATCC 14028); test: agar well diffusion assay, inhibition zone; assay type: cell-based; details: standard antibiotic disc CN (10), control
Procedure: (§1) Antibacterial activity of the exemplary silver nanoparticles, prepared as described above (except that centrifuging and drying were omitted, i.e., antimicrobial testing was performed without removing the silver nanoparticles from the red sand extract), was evaluated against pathogenic bacterial reference strains of Acinetobacter baumannii (ATCC 19606), Salmonella typhimurium (ATCC 14028), Escherichia coli (ATCC 35218), Pseudomonas aeruginosa (27853 AT), Staphylococcus aureus (25923 AT) and Proteus vulgaris (ATCC 49132) using an agar well diffusion assay. In particular, the antibacterial activity against each strain was determined by measuring the inhibition zone. Standard antibiotic discs, including Gentamycin (CN10 μg), Augmantin (AMC 30 μg), and Ciprofloxacin (CIP 5 μg), were used as controls.

[2] = tested on: Staphylococcus aureus (25923 AT); test: agar well diffusion assay, inhibition zone; assay type: cell-based; details: standard antibiotic disc CN (10), control
Procedure: as §1

[3] = tested on: Proteus vulgaris (ATCC 49132); test: agar well diffusion assay, inhibition zone; assay type: cell-based; details: standard antibiotic disc AMC (30), control
Procedure: as §1

S. typhimurium = test: combination effect of silver nanoparticles with antibiotic discs; assay type: cell-based, Salmonella typhimurium; details: antibiotic disc alone; F 100 μg, FOS 50 μg, TE 30 μg, FEP 30 μg, MXF 5 μg, LEV 5 μg; Mueller-Hinton agar, 24 hours at 37° C.
Procedure: (§2) Moreover, combination effects were determined by first adjusting the turbidity of the previously mentioned bacterial strains to 0.5 MacFarland standards (10^8 CFU/mL), and swabbing the strains on Mueller-Hinton agar. Antibiotic discs alone were used as controls, respectively. […] To study the combination effect, 30 μl of the exemplary silver nanoparticles were loaded on the antibiotics discs then placed on the swabbed medium. The plates were incubated for 24 hours at 37° C. The diameters of the inhibition zones were measured and reported in millimeters.

E. coli = test: as above; assay type: cell-based, Escherichia coli; details: antibiotic disc alone; F 100 μg, FOS 50 μg, TE 30 μg, FEP 30 μg, MXF 5 μg, LEV 5 μg; Mueller-Hinton agar, 24 hours at 37° C.
Procedure: as §2

A. baumannii = test: as above; assay type: cell-based, Acinetobacter baumannii; details: antibiotic disc alone; F 100 μg, FOS 50 μg, TE 30 μg, FEP 30 μg, MXF 5 μg, LEV 5 μg; Mueller-Hinton agar, 24 hours at 37° C.
Procedure: as §2

P. aeruginosa = test: as above; assay type: cell-based, Pseudomonas aeruginosa; details: antibiotic disc alone; F 100 μg, FOS 50 μg, TE 30 μg, FEP 30 μg, MXF 5 μg, LEV 5 μg; Mueller-Hinton agar, 24 hours at 37° C.
Procedure: as §2

P. vulgaris = test: as above; assay type: cell-based, Proteus vulgaris; details: antibiotic disc alone; F 100 μg, FOS 50 μg, TE 30 μg, FEP 30 μg, MXF 5 μg, LEV 5 μg; Mueller-Hinton agar, 24 hours at 37° C.
Procedure: as §2

S. aureus = test: as above; assay type: cell-based, Staphylococcus aureus; details: antibiotic disc alone; RD 5 μg, E 15 μg, TOB 10 μg, TGC 15 μg, MXF 5 μg, LEV 5 μg; Mueller-Hinton agar, 24 hours at 37° C.
Procedure: as §2

[4] = tested on: Acinetobacter baumannii (ATCC 19606); test: agar well diffusion assay, inhibition zone; assay type: cell-based; details: standard antibiotic disc CIP (5), control
Procedure: as §1

[5] = tested on: Escherichia coli (ATCC 35218); test: agar well diffusion assay, inhibition zone; assay type: cell-based; details: standard antibiotic disc CIP (5), control
Procedure: as §1

[6] = tested on: Pseudomonas aeruginosa (27853 AT); test: agar well diffusion assay, inhibition zone; assay type: cell-based; details: standard antibiotic disc CIP (5), control
Procedure: as §1

Compound	C: inhibition zone of the antibiotic alone as a control (S. typhimurium)	C: inhibition zone of the antibiotic alone as a control (E. coli)	C: inhibition zone of the antibiotic alone as a control (A. baumannii)	C: inhibition zone of the antibiotic alone as a control (P. aeruginosa)	C: inhibition zone of the antibiotic alone as a control (P. vulgaris)	C: inhibition zone of the antibiotic alone as a control (S. aureus)	other results
Gentamycin [CN]	–	–	–	–	–	–	Diameter of inhibition zone, standard antibiotic disc [1]: CN (10) = 24 mm; Diameter of inhibition zone, standard antibiotic disc [2]: CN (10) = 30 mm
Augmantin [AMC]	–	–	–	–	–	–	Diameter of inhibition zone, standard antibiotic disc [3]: AMC (30) = 32 mm
C[C@@H]1O[C@@H]1P(=O)(O)O [Fosfomycin]	20.5 mm	24 mm	10 mm	27 mm	11 mm	–	–
CC[C@H]1OC(=O)[C@H](C)[C@@H](O[C@H]2C[C@@](C)(OC)[C@@H](O)[C@H](C)O2)[C@H](C)[C@@H](O[C@@H]2O[C@H](C)C[C@H](N(C)C)[C@H]2O)[C@](C)(O)C[C@@H](C)C(=O)[C@H](C)[C@@H](O)[C@]1(C)O [Erythromycin]	–	–	–	–	–	32 mm	–
CO[C@H]1/C=C/O[C@@]2(C)Oc3c(C)c(O)c4c(O)c(c(/C=N/N5CCN(C)CC5)c(O)c4c3C2=O)NC(=O)/C(C)=C\C=C\[C@H](C)[C@H](O)[C@@H](C)[C@@H](O)[C@@H](C)[C@H](OC(C)=O)[C@@H]1C [Rifampicin]	–	–	–	–	–	34.5 mm	–
CO/N=C(\C(=O)N[C@@H]1C(=O)N2C(C(=O)[O-])=C(C[N+]3(C)CCCC3)CS[C@H]12)c1csc(N)n1 [Cefepime]	23.5 mm	–	–	11 mm	–	–	–
COc1c(N2C[C@@H]3CCCN[C@@H]3C2)c(F)cc2c(=O)c(C(=O)O)cn(C3CC3)c12 [Moxifloxacin]	30 mm	31 mm	20 mm	22.5 mm	19. mm	33 mm	–
C[C@H]1COc2c(N3CCN(C)CC3)c(F)cc3c(=O)c(C(=O)O)cn1c23 [Levofloxacin]	30 mm	35 mm	23 mm	27 mm	33 mm	27 mm	–
NC[C@H]1O[C@H](O[C@H]2[C@H](O)[C@@H](O[C@H]3O[C@H](CO)[C@@H](O)[C@H](N)[C@H]3O)[C@H](N)C[C@@H]2N)[C@H](N)C[C@@H]1O [Tobramycin]	–	–	–	–	–	26 mm	–
CN(C)c1cc(NC(=O)CNC(C)(C)C)c(O)c2c1C[C@H]1C[C@H]3[C@H](N(C)C)C(O)=C(C(N)=O)C(=O)[C@@]3(O)C(O)=C1C2=O [Tigecycline]	–	–	–	–	–	24 mm	–
O=C1CN(/N=C/c2ccc([N+](=O)[O-])o2)C(=O)N1 [Nitrofurantoin]	23.5 mm	21.5 mm	11 mm	–	10 mm	–	–
O=C(O)c1cn(C2CC2)c2cc(N3CCNCC3)c(F)cc2c1=O [CIP, Ciprofloxacin]	–	–	–	–	–	–	Diameter of inhibition zone, standard antibiotic disc [4]: CIP (5) = 25 mm; Diameter of inhibition zone, standard antibiotic disc [5]: CIP (5) = 33 mm; Diameter of inhibition zone, standard antibiotic disc [6]: CIP (5) = 31 mm
CN(C)[C@@H]1C(O)=C(C(N)=O)C(=O)[C@@]2(O)C(O)=C3C(=O)c4c(O)cccc4[C@@](C)(O)[C@H]3C[C@@H]12 [Tetracycline]	18 mm	17 mm	11.5 mm	11.5 mm	11. mm	–	–
